Test results published in ChEMBL document CHEMBL1146408, “Makaluvamine N: a new pyrroloiminoquinone from Zyzzya fuliginosa” (1997).

Biological target: DNA topoisomerase 2-alpha (Homo sapiens) (UniProt P11388)
Assay: Inhibition of human topoisomerase 2alpha-mediated supercoiled pBR322 DNA relaxation at 5 ug/ml by agarose gel electrophoresis

DNA topoisomerase 2-alpha (Homo sapiens), sequence (P11388 whole entry): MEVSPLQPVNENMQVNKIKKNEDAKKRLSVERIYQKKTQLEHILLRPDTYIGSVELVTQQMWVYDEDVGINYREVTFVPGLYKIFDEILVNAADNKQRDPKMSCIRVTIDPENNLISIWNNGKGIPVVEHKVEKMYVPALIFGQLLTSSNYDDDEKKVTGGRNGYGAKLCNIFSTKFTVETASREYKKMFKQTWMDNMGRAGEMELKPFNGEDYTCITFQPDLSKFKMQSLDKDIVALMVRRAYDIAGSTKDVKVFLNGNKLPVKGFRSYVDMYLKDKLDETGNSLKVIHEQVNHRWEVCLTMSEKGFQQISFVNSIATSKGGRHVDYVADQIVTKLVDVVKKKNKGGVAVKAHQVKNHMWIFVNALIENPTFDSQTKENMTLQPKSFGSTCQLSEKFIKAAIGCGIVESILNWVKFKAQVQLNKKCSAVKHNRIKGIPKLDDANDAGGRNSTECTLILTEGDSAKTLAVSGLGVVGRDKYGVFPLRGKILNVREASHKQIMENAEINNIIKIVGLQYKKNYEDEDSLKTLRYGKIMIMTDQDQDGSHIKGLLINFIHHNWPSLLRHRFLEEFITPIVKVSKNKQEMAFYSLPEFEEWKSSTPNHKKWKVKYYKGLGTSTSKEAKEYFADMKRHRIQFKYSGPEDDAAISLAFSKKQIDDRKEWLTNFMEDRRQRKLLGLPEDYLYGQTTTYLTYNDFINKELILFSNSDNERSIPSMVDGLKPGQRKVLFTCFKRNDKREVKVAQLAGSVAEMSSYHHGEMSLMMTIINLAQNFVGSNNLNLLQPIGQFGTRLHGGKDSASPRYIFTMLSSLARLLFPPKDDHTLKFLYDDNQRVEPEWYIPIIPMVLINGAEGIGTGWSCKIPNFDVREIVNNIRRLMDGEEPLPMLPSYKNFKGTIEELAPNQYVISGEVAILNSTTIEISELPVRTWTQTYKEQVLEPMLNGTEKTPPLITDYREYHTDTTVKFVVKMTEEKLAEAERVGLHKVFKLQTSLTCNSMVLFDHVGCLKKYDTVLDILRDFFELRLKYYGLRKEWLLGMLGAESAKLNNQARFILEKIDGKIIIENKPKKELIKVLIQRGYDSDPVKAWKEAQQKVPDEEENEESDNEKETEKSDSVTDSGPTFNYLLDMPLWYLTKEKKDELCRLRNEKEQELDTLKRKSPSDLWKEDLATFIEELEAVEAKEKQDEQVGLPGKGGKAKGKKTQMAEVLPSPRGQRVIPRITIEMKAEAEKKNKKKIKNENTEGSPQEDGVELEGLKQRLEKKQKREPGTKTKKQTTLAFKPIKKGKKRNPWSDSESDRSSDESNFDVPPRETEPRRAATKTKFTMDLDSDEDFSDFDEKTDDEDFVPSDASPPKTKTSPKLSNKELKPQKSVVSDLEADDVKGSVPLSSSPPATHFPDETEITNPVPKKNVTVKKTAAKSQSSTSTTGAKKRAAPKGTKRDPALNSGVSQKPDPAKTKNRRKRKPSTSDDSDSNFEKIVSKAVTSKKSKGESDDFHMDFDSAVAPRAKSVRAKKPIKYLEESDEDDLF

SMILES: NC1=C(Br)C2=NCCc3c[nH]c(c32)C1=O
- inhibition: 90%
